Measured values from BindingDB's records for doi:10.1021/bi500959t (University of Western Ontario, 2015).

What was measured:
[1] = biological target: T1, Ribosyldihydronicotinamide dehydrogenase [quinone] (Homo sapiens, UniProt P16083); experiment: Fluorescence Titration Assay
T1 sequence (P16083 whole entry): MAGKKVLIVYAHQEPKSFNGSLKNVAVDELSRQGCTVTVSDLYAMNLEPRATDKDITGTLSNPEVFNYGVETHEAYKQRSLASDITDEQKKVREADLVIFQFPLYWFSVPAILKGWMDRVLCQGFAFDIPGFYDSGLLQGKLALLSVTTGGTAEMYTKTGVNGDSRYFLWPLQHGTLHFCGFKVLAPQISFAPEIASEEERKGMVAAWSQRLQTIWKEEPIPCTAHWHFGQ
Procedure: To assess direct binding of inhibitors to oxidized NQO2 (NQO2ox), fluorescence quenching of FAD was monitored with an excitation wavelength of 350 nm and an emission wavelength of 430 nm. NQO2 (775 or 38.75 nM) was titrated with the indicated concentrations of TBB, TBBz, and DMAT.

[2] = biological target: T1, Ribosyldihydronicotinamide dehydrogenase [quinone]; experiment: Inhibition of Steady-State Catalysis Assay
Procedure: To determine the IC50 value of each inhibitor, reactions were initiated by addition of 154 pM NQO2 to a reaction buffer containing 150 μM SCDP and 5 μM menadione with TBB (0.625−640 μM), TBBz (2.5−640 nM), or DMAT (2.5−640 nM).

| SMILES | Kd [1] [nM] | IC50 [2] [nM] |
| --- | --- | --- |
| Brc1c(Br)c(Br)c2[nH]nnc2c1Br | 7110 | 12800 |
| CN(C)c1nc2c(Br)c(Br)c(Br)c(Br)c2[nH]1 [2-(dimethylamino)-4,5,6,7-tetrabromo-1H-benzimidazole] | 36.4 | 484 |
| Brc1c(Br)c(Br)c2[nH]cnc2c1Br [4,5,6,7-tetrabromo-1H-benzimidazole] | 18.1 | 79.4 |
